Values of other authors in patent US20240228667A9, “Methods for Treating Multiple Myeloma” (Celgene Corporation, priority 2021, published 2024).

System: acute myeloid leukemia (AML) at relapse
Details: CT-011 administered alone

Substance: CT-011: anti-PD-1 antibody, a humanized antibody
- response in treating acute myeloid leukemia (AML) at relapse: failed to show response
